Measured values: patent US6444705B1, “Angiogenesis inhibitors” (Santen Pharmaceutical Co., Ltd., priority 1998, dated 2002)
Where a name gives a salt, the structure may show the parent alone.

Tested on: chick chorioallantonic membrane
Assay: Inhibitory effect on angiogenesis in the chick chorioallantonic membrane
Assay type: in vivo, chick (white leghorn)
Conditions: pellet on embryo chorioallantonic membrane, cultured two days, rate = positive eggs/tested eggs x100
Protocol: It was reported that effects of drugs on angiogenesis were evaluated using fertilized egg embryo chorioallantonic membrane as an in vivo angiogenesis evaluation model (Biochem. Biophys. Res. Commun., 174, 1070-1076 (1991)). Accordingly, effects of a cysteine derivative on the angiogenesis evaluation model were studied according to the assay described in the above-mentioned literature.
1. Methyl cellulose (0.1 g) is dissolved in sterile purified water (10 ml) to prepare a 1% solution of methyl cellulose.
2. A test compound is dissolved in ethanol/sterile purified water (1/1) to prepare a 24 μmol/ml solution.
3. The 24 μmol/ml solution of the test compound is diluted with ethanol/sterile purified water (1/1) to prepare 12 μmol/ml and 6 μmol/ml solutions of the test compound.
4. The solution (0.20 ml) of the test compound having each concentration is mixed with the 1% solution (0.20 ml) of methyl cellulose to prepare a mixed solution of the test compound.
5. […]
Hatched eggs (white leghorn) of three days old after fertilization were put up by threes on a culture plate having six wells with their air phases upward and incubated in a CO2 incubator for 20 minutes (temperature: 37° C., humidity: 95%, CO2 concentration: 5%). […] Hatched eggs in which angiogenesis was not observed were defined as positive, and inhibition rates of angiogenesis were calculated by the following equation.

## CC(C)(CS)C(=O)NC(CS)C(=O)NCCCCCCN (stereo in doubt) [N^1-(6-aminohexyl)-N^2-(2,2-dimethyl-3-mercaptopropionyl)-L-cysteinamide hydrochloride]
Dose 0.06 μmol/egg
  Inhibition rate of angiogenesis (%): 80%
Dose 0.12 μmol/egg
  Inhibition rate of angiogenesis (%): 93%
